Measured values as given in ChEMBL document CHEMBL1138164, “Synthesis and structure-activity relationships of novel pyrrolocarbazole lactam analogs as potent and cell-permeable inhibitors of poly(ADP-ribose)polymerase-1 (PARP-1)” (Bioorg Med Chem Lett, 2006).
Converted amounts (≈) assume the structure as drawn.

Experiments:
[1] = test system: PC-12; test: Potency in PC12 cells assessed by recovery of NAD+ at 1 uM; assay type: functional, Rattus norvegicus
[2] = test system: PC-12; test: Efficacy in PC12 cells assessed by recovery of NAD+ at 30 uM; assay type: functional, Rattus norvegicus
[3] = test system: PC-12; test: Potency in PC12 cells assessed by recovery of NAD+ at 10 uM; assay type: functional, Rattus norvegicus
[4] = Aqueous solubility of compound; assay type: physicochemical; conditions: water (aqueous)

## Cc1ccc2[nH]c3c4c(c5c(c3c2c1)CNC5=O)CCC4
[1]
  Activity: 17%
[2]
  Efficacy: 50%

## O=C1NCc2c1c1c(c3[nH]c4ccccc4c23)CCC1
[1]
  Activity: 48%
[3]
  Activity: 68%
[4]
  solubility: < 1 µg/mL

## CN(Cc1ccccn1)C(=O)c1ccc2[nH]c3c4c(c5c(c3c2c1)CNC5=O)CCC4
[1]
  Activity: 11%
[2]
  Efficacy: 44%

## CN(Cc1ccncc1)C(=O)c1ccc2[nH]c3c4c(c5c(c3c2c1)CNC5=O)CCC4
[1]
  Activity: 23%
[2]
  Efficacy: 101%

## CN(CCc1c[nH]cn1)C(=O)c1ccc2[nH]c3c4c(c5c(c3c2c1)CNC5=O)CCC4
[1]
  Activity: 5%
[2]
  Efficacy: 39%

## O=C1NCc2c1c1c(c3[nH]c4ccc(C(=O)N5CCOCC5)cc4c23)CCC1
[1]
  Activity: 18%
[2]
  Efficacy: 74%

## CN(C)CCNC(=O)c1ccc2[nH]c3c4c(c5c(c3c2c1)CNC5=O)CCC4
[1]
  Activity: 6%
[2]
  Efficacy: 36%

## NCc1ccc2[nH]c3c4c(c5c(c3c2c1)CNC5=O)CCC4
[1]
  Activity: 39%
[2]
  Efficacy: 102%
[4]
  solubility: 100 µg/mL (≈ 343 µM)

## O=C(O)c1ccc2[nH]c3c4c(c5c(c3c2c1)CNC5=O)CCC4
[1]
  Activity: 24%
[2]
  Efficacy: 65%

## O=C(NCCN1CCOCC1)c1ccc2[nH]c3c4c(c5c(c3c2c1)CNC5=O)CCC4
[1]
  Activity: 7%
[2]
  Efficacy: 27%

## NCCCCC(N)C(=O)NCc1ccc2[nH]c3c4c(c5c(c3c2c1)CNC5=O)CCC4 (stereo not given)
[1]
  Activity: 2%
[2]
  Efficacy: 48%

## O=C1NCc2c1c1c(c3[nH]c4ccc(Cl)cc4c23)CCC1
[1]
  Activity: 26%
[2]
  Efficacy: 133%

## O=C(NCCn1ccnn1)c1ccc2[nH]c3c4c(c5c(c3c2c1)CNC5=O)CCC4
[1]
  Activity: 12%
[2]
  Efficacy: 28%

## COC(=O)c1ccc2[nH]c3c4c(c5c(c3c2c1)CNC5=O)CCC4
[1]
  Activity: 38%
[2]
  Efficacy: 134%

## N#Cc1ccc2[nH]c3c4c(c5c(c3c2c1)CNC5=O)CCC4
[1]
  Activity: 26%
[3]
  Activity: 74%
[2]
  Efficacy: 122%

## O=C1NCc2c1c1c(c3[nH]c4ccc(Br)cc4c23)CCC1
[1]
  Activity: 28%
[3]
  Activity: 47%
